Assay results: ChEMBL document CHEMBL1201862, “PubChem BioAssay data set” (2004)
Active and inactive are the calls of the source.

Columns and labels:
Cytochrome P450 2D6 = Cytochrome P450 2D6 (Homo sapiens, UniProt P10635);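 note: CYP2D6 member of a cytochrome P450 panel assay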
[1] = target: T1, RNA-binding protein pos-1 (Caenorhabditis elegans, UniProt G5EF15); experiment: inhibitors of POS-1/mex-3 RNA binding, dose response, biochemical, fluorescence polarization (AID 1964);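 note: purified POS-1 fused to maltose binding protein made in E. coli; potency of compounds blocking POS-1 binding to fluorescent RNA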
T1 sequence (G5EF15 whole entry): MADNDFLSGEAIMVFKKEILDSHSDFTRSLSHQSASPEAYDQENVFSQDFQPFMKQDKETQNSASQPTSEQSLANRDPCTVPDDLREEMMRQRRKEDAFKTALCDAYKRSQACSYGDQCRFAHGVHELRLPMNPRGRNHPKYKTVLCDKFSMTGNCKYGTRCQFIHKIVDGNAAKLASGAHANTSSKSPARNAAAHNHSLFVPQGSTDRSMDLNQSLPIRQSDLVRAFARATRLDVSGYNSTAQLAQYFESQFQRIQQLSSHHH

[2] = target: T2, Zinc finger protein mex-5 (Caenorhabditis elegans, UniProt Q9XUB2); experiment: MEX-5/TCR-2 RNA interaction inhibitors, dose response, biochemical, C. elegans, fluorescence polarization (AID 1960)
T2 sequence (Q9XUB2 whole entry): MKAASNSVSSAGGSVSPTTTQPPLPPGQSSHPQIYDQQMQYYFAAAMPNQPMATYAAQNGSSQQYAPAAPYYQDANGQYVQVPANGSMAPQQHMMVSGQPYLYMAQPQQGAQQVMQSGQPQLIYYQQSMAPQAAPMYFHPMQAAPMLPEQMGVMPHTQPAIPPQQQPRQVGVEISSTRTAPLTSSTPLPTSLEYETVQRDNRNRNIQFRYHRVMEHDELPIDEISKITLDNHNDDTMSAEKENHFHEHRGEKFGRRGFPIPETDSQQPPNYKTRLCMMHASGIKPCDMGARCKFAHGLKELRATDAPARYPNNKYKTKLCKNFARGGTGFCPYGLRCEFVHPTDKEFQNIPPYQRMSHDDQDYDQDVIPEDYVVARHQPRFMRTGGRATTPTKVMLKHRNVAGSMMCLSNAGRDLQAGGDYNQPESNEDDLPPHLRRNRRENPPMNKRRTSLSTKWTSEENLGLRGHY

[3] = target: T3, Heat shock factor protein 1 (Mus musculus, UniProt P38532); experiment: HSF1 potentiators in luciferase reporter cells, confirmation, cell-based, NIH3T3, luminescence, dose retest (AID 435004); type: functional;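 note: stress induced by proteasome inhibitor MG132 added 30 min after compound; luciferase reporter driven by HSF1 response element in NIH3T3 cells; actives raise luminescence as potentiators of the MG132 stress response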
T3 sequence (P38532 whole entry): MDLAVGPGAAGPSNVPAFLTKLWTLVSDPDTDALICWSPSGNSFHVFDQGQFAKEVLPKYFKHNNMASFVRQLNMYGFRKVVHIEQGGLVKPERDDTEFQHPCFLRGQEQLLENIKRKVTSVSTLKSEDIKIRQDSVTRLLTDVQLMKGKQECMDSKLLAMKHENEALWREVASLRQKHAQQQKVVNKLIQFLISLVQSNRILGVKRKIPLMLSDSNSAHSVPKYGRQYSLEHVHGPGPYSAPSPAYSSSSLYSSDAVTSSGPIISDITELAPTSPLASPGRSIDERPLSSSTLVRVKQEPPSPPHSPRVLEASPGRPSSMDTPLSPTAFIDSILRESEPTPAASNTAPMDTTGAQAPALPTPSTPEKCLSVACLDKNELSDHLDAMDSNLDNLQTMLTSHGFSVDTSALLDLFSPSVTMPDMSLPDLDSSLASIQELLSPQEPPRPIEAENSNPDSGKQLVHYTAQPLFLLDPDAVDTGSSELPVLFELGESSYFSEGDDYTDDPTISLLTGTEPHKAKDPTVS

Cytochrome P450 2C19 = Cytochrome P450 2C19 (Homo sapiens, UniProt P33261); experiment: Cytochrome panel assay with activity outcomes. Panel member name: p450-cyp2c19 Compounds with AC50 equal or less than 10 uM are considered active; type: functional; settings: read-out: AC50
[4] = system: Streptococcus sp. 'group A'; experiment: growth inhibition of control SK(-) GAS strain, dose response, counter-screen for streptokinase expression inhibitor project, luminescence, kanamycin, BacTiterGlo, confirmation (AID 1900); type: functional, organism-based
Streptokinase A = target: T4, Streptokinase A (Streptococcus pyogenes serotype M1, UniProt P10520); experiment: S. pyogenes streptokinase expression inhibitors, potency, dose response, plasminogen activation absorbance, OD405 (AID 1914); type: functional, Streptococcus pyogenes M1 GAS;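 note: secreted streptokinase activity via plasminogen activation per viability signal from cell pellet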
T4 sequence (P10520 whole entry): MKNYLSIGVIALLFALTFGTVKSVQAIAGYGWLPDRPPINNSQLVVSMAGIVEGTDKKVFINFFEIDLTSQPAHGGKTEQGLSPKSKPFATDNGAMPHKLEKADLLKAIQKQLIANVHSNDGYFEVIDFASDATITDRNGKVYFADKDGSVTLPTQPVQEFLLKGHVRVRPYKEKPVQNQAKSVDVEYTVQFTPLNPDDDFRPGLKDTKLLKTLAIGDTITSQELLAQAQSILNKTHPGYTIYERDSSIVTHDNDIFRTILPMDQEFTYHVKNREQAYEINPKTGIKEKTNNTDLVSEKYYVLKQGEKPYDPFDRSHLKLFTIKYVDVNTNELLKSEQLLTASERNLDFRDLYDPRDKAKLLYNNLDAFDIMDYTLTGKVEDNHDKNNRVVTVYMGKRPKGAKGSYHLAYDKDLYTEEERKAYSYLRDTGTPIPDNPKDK

[5] = inhibitors of intracellular T. cruzi replication, confirmation, NIH3T3 host cells, beta-gal luminescence (AID 2044); type: functional, cell-based;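 note: intracellular parasites grown in NIH/3T3 mouse fibroblasts as host cells; luminescent beta-galactosidase reporter signal from transgenic T. cruzi replicating inside host cells; inhibitors lower the luminescence signal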
[6] = cytotoxicity toward NIH3T3 fibroblasts, dose response, counter-screen, cell-based, ATP luminescence, mouse fibroblasts (AID 2010); type: functional;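 note: cells exposed to compound for about 90 hours before reading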
Streptococcus = experiment: Group A Streptococcus viability loss, dose response, counter-screen for streptokinase expression inhibitor project, luminescence, BacTiterGlo (AID 1915); type: functional, organism-based;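 note: potency for reduction of bacterial viability or growth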
Cytochrome P450 1A2 = target: T5, Cytochrome P450 1A2 (Homo sapiens, UniProt P05177);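 note: PubChem cytochrome P450 panel assay, CYP1A2 panel member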
T5 sequence (P05177 whole entry): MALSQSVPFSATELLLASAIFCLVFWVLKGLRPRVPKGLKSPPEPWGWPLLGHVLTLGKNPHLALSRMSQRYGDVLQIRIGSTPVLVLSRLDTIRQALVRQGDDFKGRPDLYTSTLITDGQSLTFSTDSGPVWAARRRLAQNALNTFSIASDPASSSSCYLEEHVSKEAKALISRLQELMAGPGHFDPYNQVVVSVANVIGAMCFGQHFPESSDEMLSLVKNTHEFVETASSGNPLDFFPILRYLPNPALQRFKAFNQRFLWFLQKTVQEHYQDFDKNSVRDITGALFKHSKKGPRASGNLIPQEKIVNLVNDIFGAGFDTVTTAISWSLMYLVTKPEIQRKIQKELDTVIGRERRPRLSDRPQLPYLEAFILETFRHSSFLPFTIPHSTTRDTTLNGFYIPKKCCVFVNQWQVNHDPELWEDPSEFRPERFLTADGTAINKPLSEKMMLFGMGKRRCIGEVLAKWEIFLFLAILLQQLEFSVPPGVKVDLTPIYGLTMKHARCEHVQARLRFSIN

Chain of Cytochrome P450 2D6 (P10635 whole entry, the tested form may be a part): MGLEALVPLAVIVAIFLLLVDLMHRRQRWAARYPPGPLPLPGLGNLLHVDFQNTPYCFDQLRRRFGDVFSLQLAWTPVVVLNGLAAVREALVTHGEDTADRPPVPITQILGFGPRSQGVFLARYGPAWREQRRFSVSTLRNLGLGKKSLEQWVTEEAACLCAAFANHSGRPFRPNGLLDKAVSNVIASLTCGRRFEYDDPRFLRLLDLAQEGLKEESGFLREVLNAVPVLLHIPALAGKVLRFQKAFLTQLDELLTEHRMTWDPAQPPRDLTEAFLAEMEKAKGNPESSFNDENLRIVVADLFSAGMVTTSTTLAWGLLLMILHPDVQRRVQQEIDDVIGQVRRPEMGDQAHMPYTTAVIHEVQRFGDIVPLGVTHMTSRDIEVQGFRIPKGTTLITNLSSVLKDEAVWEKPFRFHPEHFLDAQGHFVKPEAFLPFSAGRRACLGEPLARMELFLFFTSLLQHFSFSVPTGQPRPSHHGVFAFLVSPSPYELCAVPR
Chain of Cytochrome P450 2C19 (P33261 whole entry): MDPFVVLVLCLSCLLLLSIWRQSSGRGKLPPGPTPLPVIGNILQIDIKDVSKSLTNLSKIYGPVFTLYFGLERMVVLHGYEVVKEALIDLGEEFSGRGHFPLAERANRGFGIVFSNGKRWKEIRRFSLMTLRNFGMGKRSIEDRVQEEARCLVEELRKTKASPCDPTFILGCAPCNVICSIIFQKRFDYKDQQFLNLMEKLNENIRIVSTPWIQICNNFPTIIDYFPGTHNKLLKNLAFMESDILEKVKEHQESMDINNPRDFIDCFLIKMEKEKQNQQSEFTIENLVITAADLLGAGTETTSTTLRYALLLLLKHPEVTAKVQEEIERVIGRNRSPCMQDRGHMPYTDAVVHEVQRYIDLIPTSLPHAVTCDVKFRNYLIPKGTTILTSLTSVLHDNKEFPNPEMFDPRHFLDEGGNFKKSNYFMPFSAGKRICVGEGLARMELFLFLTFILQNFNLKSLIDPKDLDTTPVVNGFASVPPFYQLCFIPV

CCCCC#Cc1ccccc1CC(=O)Nc1ccccc1
AC50 (Cytochrome P450 2D6): 12.6 µM (inconclusive)

O=C1C(Cl)=C(Nc2ccccc2O)C(=O)N1c1ccccc1
EC50 [1]: > 300 µM (not active)
EC50 [2]: 73 µM (inconclusive)

OCCOc1ccc(C2=NCCO2)cc1
EC50 [1]: > 300 µM (not active)
EC50 [2]: > 300 µM (not active)

Cc1ccccc1CC(=O)NC1CCCc2ccccc21 (configuration not stated)
EC50 [3]: > 260 µM (inactive)

CCOC(=O)c1cc(C#N)c(SCc2ccc(C#N)cc2)nc1C
EC50 [3]: 41.9 µM (active)

COc1cc(C2CC(c3cccnc3)=NN2c2ccc(F)cc2)cc(OC)c1OC (configuration not stated)
EC50 [3]: 48.5 µM (active)

Nc1ccccc1Nc1ccc([N+](=O)[O-])cc1[N+](=O)[O-]
EC50 [3]: > 260 µM (inactive)

COc1ccc(CN(CC2CCC(C(=O)O)CC2)C(S)=Nc2cc(Cl)ccc2OC)cc1 (configuration not stated)
EC50 [3]: > 260 µM (inactive)

CCCn1c(=N)c(C(=O)NCC2CCCO2)cc2c(=O)n3cccc(C)c3nc21 (configuration not stated)
EC50 [1]: > 300 µM (not active)
EC50 [2]: > 300 µM (not active)

CN(C)c1ncc2nc(CCc3ccccc3)c(=O)n(-c3ccccc3)c2n1
AC50 (Cytochrome P450 2C19): 39.8 µM (inconclusive)
AC50 (Cytochrome P450 2D6): 2.51 µM (inconclusive)

O=C1NC(=O)N(c2ccc(Br)cc2)C(=O)/C1=C/NCCN1CCCCC1
EC50 [1]: > 300 µM (not active)
EC50 [2]: 106 µM (active)

COc1cccc(-c2ccc3ncnc(NC4CC4)c3c2)c1
AC50 (Cytochrome P450 2D6): 25.1 µM (inconclusive)

CCN1/C(=C2/SC(=S)N(NC(C)=O)C2=O)Sc2ccccc21
EC50 [1]: 60.7 µM (active)
EC50 [2]: > 300 µM (not active)

CC(C)(C)c1nc(NC(=O)Nc2ccccc2)sc1Br
EC50 [4]: 4.45 µM (active)
EC50 (Streptokinase A): > 50 µM (not active)
EC50 [5]: 4.22 µM (active)
EC50 [6]: > 60 µM (not active)
EC50 (Streptococcus): 6.77 µM (active)

Cc1cc(=O)nc2c3ccccc3n(CC(=O)Nc3ccccc3Br)n12
EC50 [1]: > 300 µM (not active)
EC50 [2]: 103 µM (active)

CC(=O)N1CCC2(CCN(Cc3ccccc3)CC2)CC1
AC50 (Cytochrome P450 2D6): 15.8 µM (inconclusive)

Cc1cnc(CNc2ncnc3ccc(-c4ccccc4C)cc23)cn1
AC50 (Cytochrome P450 2D6): 20 µM (inconclusive)

CC(C)(C)NC(=O)c1ccc2c3c(cccc13)CC2
EC50 [3]: > 260 µM (inactive)

CC[N+](CC)(CCNC(=O)C(=O)NCC[N+](CC)(CC)Cc1ccccc1Cl)Cc1ccccc1Cl [AMBENONIUM]
AC50 (Cytochrome P450 2D6): 39.8 µM (inconclusive)

Cn1c(C[C@@H](O)c2nc3ccccc3n2C)nc2ccccc21
AC50 (Cytochrome P450 2D6): 2.51 µM (inconclusive)

CC(=O)c1cccc(NC(=O)/C(=C\c2ccco2)NC(=O)c2cccs2)c1
AC50 (Cytochrome P450 2C19): 11.2 µM (inconclusive)
AC50 (Cytochrome P450 2D6): 14.1 µM (inconclusive)
AC50 (Cytochrome P450 1A2): 14.1 µM (inconclusive)

Cc1ccc(NC(S)=Nc2nc(CC(=O)Nc3ccccc3)cs2)cc1
AC50 (Cytochrome P450 2D6): 1.78 µM (inconclusive)

Cc1nc2ccccc2c2oc(C(=O)Nc3ccc4c(c3)OCCO4)cc12
EC50 [1]: 16.6 µM (active)
EC50 [2]: 25.9 µM (inconclusive)

COC(=O)CCC(=O)OC1(C)C(=O)C=C2C=C(c3ccsc3)OC=C2C1=O (configuration not stated)
EC50 [1]: 36.8 µM (active)
EC50 [2]: 26.7 µM (inconclusive)

Cc1ccn2c(C(=O)N/N=C\c3ccccc3[N+](=O)[O-])c(C)nc2c1
EC50 [3]: > 260 µM (inactive)

CN(CC1CCCO1)S(=O)(=O)c1ccc(C(=O)Nc2ccc(F)cc2)cc1 (configuration not stated)
EC50 [4]: > 150 µM (not active)
EC50 (Streptokinase A): > 150 µM (not active)
EC50 (Streptococcus): > 150 µM (not active)

Cc1noc(C)c1-c1nccc(NCc2cccnc2)n1
AC50 (Cytochrome P450 2D6): 20 µM (inconclusive)

COc1cc2[nH]c(=S)n(Cc3ccco3)c(=O)c2cc1OC
EC50 [3]: > 260 µM (inactive)

NC(=O)[C@@H]1CCCN1Cc1c(C(=O)N2CCc3ccccc3C2)nc2ccc(Cl)cn12
EC50 [1]: 61.7 µM (active)
EC50 [2]: 47 µM (active)

CCCCCCCCCCCCCC(=O)O[C@H](CC(=O)[O-])C[N+](C)(C)C
AC50 (Cytochrome P450 2D6): 31.6 µM (inconclusive)

O=C(CSc1nnc(NC(=O)C2CC(=O)N(c3ccc(F)cc3)C2)s1)NCc1ccco1 (configuration not stated)
EC50 [4]: > 150 µM (not active)
EC50 (Streptokinase A): > 150 µM (not active)
EC50 (Streptococcus): > 150 µM (not active)

COC(=O)c1c(C)[nH]c(C(=O)OCC(=O)N(CC(C)C)c2c(N)n(Cc3ccccc3)c(=O)[nH]c2=O)c1C
EC50 [4]: 5.83 µM (active)
EC50 (Streptokinase A): > 150 µM (not active)
EC50 (Streptococcus): > 150 µM (not active)

CCOc1ccc(N2CC(=O)C(c3nc(O)c4ccccc4n3)=C2N)cc1
EC50 [3]: > 260 µM (inactive)

O=C(NC1CCCN(Cc2ccccc2F)C1)c1cccs1 (configuration not stated)
EC50 [3]: > 260 µM (inactive)

CC(C)(C)N(Cc1ccccc1)C(=O)COc1cccnc1[N+](=O)[O-]
EC50 [4]: > 150 µM (not active)
EC50 (Streptokinase A): > 150 µM (not active)
EC50 (Streptococcus): > 150 µM (not active)

COc1ccc(S(=O)(=O)n2nc(OC(=O)c3ccccc3Br)cc2N)cc1
EC50 [3]: 18.2 µM (active)

Cc1ccc(CC2S/C(=N\c3ccccc3)N(c3ccccc3)C2=O)cc1 (configuration not stated)
EC50 [3]: > 260 µM (inactive)

COC(=O)/C(=C\C(=O)c1ccccc1)Nc1cccc(C(F)(F)F)c1
AC50 (Cytochrome P450 2D6): 25.1 µM (inconclusive)

COC(=O)CCCC1=CC2=CC(=O)C(C)(OC(=O)c3cccs3)C(=O)C2=CO1 (configuration not stated)
EC50 [1]: 14 µM (active)
EC50 [2]: 16.5 µM (active)

COC(=O)c1ccc(C23CC2(C(NP(=O)(c2ccccc2)c2ccccc2)c2ccccc2)C3)cc1 (configuration not stated)
AC50 (Cytochrome P450 2D6): 31.6 µM (inconclusive)

O=C(O)CSc1c(-c2ccccc2)[nH]c2ccccc12
EC50 [3]: > 260 µM (inactive)

Cc1ccc(/N=C2\SC(C(=O)NCCc3ccccc3)CC(=O)N2C)cc1C (configuration not stated)
EC50 [3]: > 260 µM (inactive)

COc1cc(C2NC(S)=NC(C)=C2C(=O)OC(C)C)ccc1OC(C)C (configuration not stated)
EC50 [1]: > 300 µM (not active)
EC50 [2]: > 300 µM (not active)

Cc1ccccc1-c1nc2c3ccccc3nc(S)n2n1
EC50 [4]: 14 µM (active)
EC50 (Streptokinase A): > 150 µM (not active)
EC50 (Streptococcus): > 150 µM (not active)
